In publication PMC6778101 (Nature Communications, 2019):
Where two headings read alike, the source gives them in different places. Ends that are not written are not given here.

Tests used:
Type in all cases: cell-based, Escherichia coli
E. coli K-12 BW25113 [1] = assay: microbe, parasite or virus in culture; settings: starting wild-type strain of the evolution experiment; broth dilution, MS medium, 5 × 10^5 cells/mL, 30 °C, 24 h, MIC = OD600 < 0.05
Text: Unless otherwise indicated, Minimal Salt (MS) medium was used in all experiments, including the laboratory evolution experiments. In line with previous, methodologically relevant laboratory evolution studies, the physical conditions (including the medium) were the same during the course of laboratory evolution and all forthcoming assays on the resulting resistant lines (e.g. MIC measurements). We previously optimized this medium for studying AMPs (1 g L^−1 (NH4)2SO4, 3 g L^−1 KH2PO4 and 7 g L^−1 K2HPO4 supplemented with 0.1 mM MgSO4, 0.54 µg mL^−1 FeCl3, 1 µg mL^−1 thiamine hydrochloride, 0.2% Casamino acids and 0.2% glucose)[19]. This medium is highly controlled and provides a reproducible environment for experimental evolution experiments. All components were obtained from Sigma-Aldrich.
MICs were determined using a standard serial broth dilution technique. Briefly, 11-step serial dilutions were prepared in 96-well microtiter plates with three replicates per strain and antimicrobial compound. Each experiment was repeated at least twice. 5 × 10^5 cells/mL were inoculated into each well, and the plates were incubated at 30 °C in case of E. coli K-12 BW25113, and its antibiotic and AMP-adapted lines, or 37 °C in case of the other bacterial species. […] Cell growth was monitored by measuring the optical density (OD600 value, Biotek Synergy 2 microplate reader was used for this purpose). […] Relative MIC was calculated as follows: MICrelative = MICevolved/MICcontrol.

[2] = system: E. coli K-12 BW25113 carrying ASKA plasmids; assay: microbe, parasite or virus in culture; settings: MS medium + 10 µg mL−1 CHL + 500 µM IPTG, 5 × 10^5 cells, 16–18 h, 37 °C
Text: Bacterial gene amplification generates extensive genetic variation that can provide drug resistance[37],[38]. As gene amplification events tend to be genetically unstable and reduce bacterial fitness, they are transient in nature. Using the ASKA library, which comprises each E. coli ORF cloned into an expression vector[40], we have conducted a global survey to evaluate whether artificially amplified genes provide resistance to any of the 14 AMPs and 11 antibiotics tested. As chloramphenicol (CHL) was used as a selection marker for the ASKA plasmid, this antibiotic was not tested in this screen. E. coli K-12 BW25113 cells were transformed with the pooled plasmids of the ASKA library, and the genetically mixed populations were exposed to increasing levels of AMP or antibiotic stresses, respectively. In all cases, the employed AMP or antibiotic dosages were above the MIC of the wild type. For each drug, we identified the MIC provided in the pooled ASKA plasmid library, and compared it to the MIC of the wild-type strain carrying the empty ASKA plasmid.
The ASKA library (a complete set of E. coli K-12 ORF archive) includes every E. coli ORF cloned into an expression vector (pCA24N)[65]. Prior to screening, the ASKA plasmid collection was pooled and transformed into E. coli K-12 BW25113 strain[66]. The plasmid pool was created by pooling an equal aliquot of cells, each carrying different members of the ASKA library, followed by plasmid miniprep. Next, the plasmid pool was electroporated into E. coli K-12 BW25113 competent cells. […] For the MICs measurements 500 000 cells were inoculated in each well which represents ~100 times coverage of each library member. […] Prior to the measurements the cell population containing the pooled overexpression library or the control strain containing the empty vector were grown in three replicates in LB medium supplemented with 20 µg/mL CHL. As the culture reached high density (i.e., OD600 > 0.8), expression of the plasmid was induced by 50 µM IPTG for 1 h. Following induction, 5 × 10^5 bacterial cells were inoculated in three replicates into each well of the 96-well plate and incubated for 16–18 h at 37 °C. Following incubation the MIC values were determined by measuring optical densities in a plate reader (Biotek Synergy).

E.coli K-12 BW25113 = settings: for MIC (freshly prepared AMP): plates inoculated immediately; for MIC (pre-incubated AMP): plates pre-incubated 72 hours before inoculation
Method: (§1) MICs were determined using a standard serial broth dilution technique. Briefly, 11-step serial dilutions were prepared in 96-well microtiter plates with three replicates per strain and antimicrobial compound. Each experiment was repeated at least twice. 5 × 10^5 cells/mL were inoculated into each well, and the plates were incubated at 30 °C in case of E. coli K-12 BW25113, and its antibiotic and AMP-adapted lines, or 37 °C in case of the other bacterial species. Plates were shaken at 300 r.p.m. during incubation for 24 and 18 h, respectively. Cell growth was monitored by measuring the optical density (OD600 value, Biotek Synergy 2 microplate reader was used for this purpose). […] Relative MIC was calculated as follows: MICrelative = MICevolved/MICcontrol.
Supplementary Table 7- Effect of incubation time on the minimum inhibitory concentration (MIC) of AMPs. We tested whether the prolonged incubation time can affect the MIC of AMPs. To test this, two sets of AMP containing MIC plates were prepared in parallel. The first set was immediately inoculated with E.coli K-12 BW25113, while the second set was pre-incubated 72 hours before inoculation with the […]
observed in the MIC between freshly prepared and pre-incubated plates. […]

E. coli K-12 BW25113 [3] = assay: Laboratory evolution of resistance, MIC fold change of adapted lines; settings: ~120 generations under increasing drug concentration
Text: Our first goal was to study resistance evolution against a set of AMPs and antibiotics. We have followed established protocols with minor modifications to evolve bacterial populations under controlled laboratory conditions[19],[20]. The applied protocol aims to maximize the level of drug resistance in the evolving populations achieved during a fixed time period. We have initiated a laboratory evolution experiment, starting with a single clone of Escherichia coli K-12 BW25113 (abbreviated as E. coli K-12 BW25113). Parallel evolving populations were exposed to increasing concentrations of one of 14 AMPs (Supplementary Table 1). Peptides were chosen based on the following criteria: diverse sources (synthetic/natural), different putative mechanisms of action, structural diversity, and clinical relevance. Another set of populations were exposed to one of 12 clinically relevant antibiotics (Supplementary Table 2), using the same protocol. Accordingly, we have propagated 10 independent populations in the presence of each AMP or antibiotic for ∼120 generations. We isolated a single, representative clone from each population, resulting in 140 AMP-adapted lines and 120 antibiotic-adapted lines. Throughout the paper, we compare the level of resistance in the evolved lines to the corresponding wild-type strain by measuring changes in the drugs’ minimum inhibitory concentrations (MIC).
The evolutionary protocol was designed to avoid population extinction and to ensure that populations with the highest level of resistance were propagated further. Starting with a subinhibitory drug concentration (Supplementary Data 8), resulting in ~50% growth inhibition, 10 parallel populations per drug were allowed to grow in Minimal Salts medium for 72 h and 300 r.p.m. E. coli K-12 BW25113 and E. coli mutD5 populations were incubated at 30 °C, while E. coli ATCC 25922, S. enterica LT2, K. pneumonia ATCC 10031, and A. baumannii ATCC 17978 were incubated at 37 °C. […] Prior to each transfer, cell growth was monitored by measuring the optical density at 600 nm (OD600 value, Biotek Synergy 2 microplate reader). Only populations with the highest drug concentration (and reaching OD600 > 0.2) were selected for further evolution. A chess-board layout was used on the plate to monitor potential cross-contamination events. […] E. coli mutD5 was adapted to TPII, also in 10 parallel evolving populations.
as §1

[4] = time allowed for bacterial growth 24 hours
[5] = time allowed for bacterial growth 48 hours
[6] = time allowed for bacterial growth 72 hours

| Compound | MIC (E. coli K-12 BW25113 [1]) [µg/mL] | MIC value of E. coli K-12 BW25113 carrying the empty plasmid of the ASKA library ([2]; Replicate 1) [µg/mL] | MIC value of E. coli K-12 BW25113 carrying the pooled plasmids of the ASKA library ([2]; Replicate 1) [µg/mL] | MIC value of E. coli K-12 BW25113 carrying the empty plasmid of the ASKA library ([2]; Replicate 2) [µg/mL] | MIC value of E. coli K-12 BW25113 carrying the pooled plasmids of the ASKA library ([2]; Replicate 2) [µg/mL] | MIC value of E. coli K-12 BW25113 carrying the empty plasmid of the ASKA library ([2]; Replicate 3) [µg/mL] | MIC value of E. coli K-12 BW25113 carrying the pooled plasmids of the ASKA library ([2]; Replicate 3) [µg/mL] | MIC (freshly prepared AMP) (E.coli K-12 BW25113; [4]) [µg/mL] | MIC (freshly prepared AMP) (E.coli K-12 BW25113; [5]) [µg/mL] | MIC (freshly prepared AMP) (E.coli K-12 BW25113; [6]) [µg/mL] | MIC (pre-incubated AMP) (E.coli K-12 BW25113; [4]) [µg/mL] | MIC (pre-incubated AMP) (E.coli K-12 BW25113; [5]) [µg/mL] | MIC (pre-incubated AMP) (E.coli K-12 BW25113; [6]) [µg/mL] | resistance in evolved lines after laboratory evolution (in words) (E. coli K-12 BW25113 [3]) |
| --- | --- | --- | --- | --- | --- | --- | --- | --- | --- | --- | --- | --- | --- | --- |
| RFRPPIRRPPIRPPFYPPFRPPIRPPIFPPIRPPFRPPLGPFP [BAC5, Bactenecin 5] | 7 | 5.79 | 4.82 | 5.79 | 5.79 | 5.79 | 4.82 | 14.5 | 14.5 | 14.5 | 14.5 | 14.5 | 14.5 | – |
| CC[C@H](C)[C@H](NC(=O)[C@H](CCCCN)NC(=O)[C@H](CCC(=O)O)NC(=O)[C@H](CCCCN)NC(=O)[C@H](CO)NC(=O)[C@H](CCCCN)NC(=O)[C@H](CCCNC(=N)N)NC(=O)[C@H](Cc1ccccc1)NC(=O)[C@H](Cc1ccccc1)NC(=O)[C@H](CC(=O)O)NC(=O)CNC(=O)[C@H](CC(C)C)NC(=O)[C@@H](N)CC(C)C)C(=O)NCC(=O)N[C@@H](CCCCN)C(=O)N[C@@H](CCC(=O)O)C(=O)N[C@@H](Cc1ccccc1)C(=O)N[C@@H](CCCCN)C(=O)N[C@@H](CCCNC(=N)N)C(=O)N[C@H](C(=O)N[C@H](C(=O)N[C@@H](CCC(N)=O)C(=O)N[C@@H](CCCNC(=N)N)C(=O)N[C@H](C(=O)N[C@@H](CCCCN)C(=O)N[C@@H](CC(=O)O)C(=O)N[C@@H](Cc1ccccc1)C(=O)N[C@@H](CC(C)C)C(=O)N[C@@H](CCCNC(=N)N)C(=O)N[C@@H](CC(N)=O)C(=O)N[C@@H](CC(C)C)C(=O)N[C@H](C(=O)N1CCC[C@H]1C(=O)N[C@@H](CCCNC(=N)N)C(=O)N[C@H](C(=O)N[C@@H](CCC(=O)O)C(=O)N[C@@H](CO)C(=O)O)[C@@H](C)O)C(C)C)[C@@H](C)CC)C(C)C)[C@@H](C)CC [LL37, cathelicidin antimicrobial peptide LL-37] | 100 | 14.45 | 14.45 | 12.04 | 17.34 | 14.45 | 14.45 | – | 17.4 | – | 17.4 | 17.4 | 17.4 | – |
| TSSPPAAVVVRRRRRRRRRRRRRRRRRRR [PROA, protamine, cationic AMP purchased from Sigma-Aldrich] | 310 | 126.51 | 126.51 | 126.51 | 36.15 | 442.78 | 442.78 | – | – | – | – | – | – | isolated resistant mutants |
